Several values for one entry are separate records, joined by “and”; a condition that tells them apart may be missing. Equal values may be shown once. Results filed as inconclusive are left out. Activity calls are given as the source filed them.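 Rule for the calls: active = fitted half-maximal concentration of signal decrease at or below twice the sample's top tested concentration; inconclusive = flat curve between -70 and -30 percent, or poor fit; inactive = flat within 30 percent, signal rise, or potency above limit.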 Starred links: 1 amine or outer side, 2 acyl side, 3 side chain; linkers in the order of their positions; H or OH if unused. Positions of bridges follow the written chain, without caps; N, C: chain ends. Non-standard residues stand in square brackets, D forms with d. Residues, ends and D or L forms follow the SMILES beside them. Groups on a side chain read outwards from the residue. ξ: configuration not given here. *: point of attachment. pTerphenylCO(4''-OnC5H11) = CCCCCOc1ccc(-c2ccc(-c3ccc(C(=O)*)cc3)cc2)cc1; ξOrn(4,5-diOH) = O=C(C(CC(O)C(O)N[*:3])N[*:1])[*:2]; ξhTyr(βξ-OH,γξ-OH) = NC(C(=O)O)C(O)C(O)c1ccc(O)cc1; ξPro(3ξ-OH,4ξ-Me) = CC1CNC(C(=O)O)C1O; Ethylenediamine = C(CN[*:2])N[*:1]; Hyp = O=C(O)[CH]1C[CH](O)CN1; Phg = N[C@H](C(=O)O)c1ccccc1; CO = O=C([*:1])[*:2]; Bn = c1ccc(C*)cc1
biological target: T. gondii ME49Luc in IFN-y HeLa, luciferase, 72 h; assay: inhibitors of Toxoplasma growth in IFN-γ-primed HeLa – cell-based, ME49Luc, luciferase, 72 h, dose response (AID 1259418)

Compound	AC50
O=C(Nc1ccc(-c2nc(-c3ccccc3)co2)cc1)c1cccc(Cl)c1	35.3 µM
N#Cc1ccc(-c2ccc([C@@H]3[C@@H]4CN(C(=O)Nc5ccc6c(c5)OCO6)C[C@H]3N4)cc2)cc1	17.9 µM
Cc1cccc(CNC2=NCCNC23CCN(S(=O)(=O)c2ccc4c(c2)CCCC4)CC3)c1	5.08 µM
Cc1ccc(S(=O)(=O)N2CSC[C@@H]2C(=O)NCCc2csc(-c3ccccc3)n2)cc1	12.9 µM
O=C(NCCc1csc(-c2ccccc2)n1)C1CCN(S(=O)(=O)c2ccc(Cl)cc2)CC1	14.6 µM
CN1c2ccc(C3=CCCCC3)cc2[C@@H]2[C@@H](CCN2C(=O)c2ccc3c(c2)OCO3)[C@@H]1CO	19.3 µM
O=C1CCc2cc(S(=O)(=O)N3CCc4ccccc43)cc3c2N1CCC3	> 39 µM (inactive)
Cc1sc2ncnc(Oc3ccc(OCc4ccccc4)cc3)c2c1C	7.63 µM and 8.8 µM
Cc1nc(OCC(=O)Nc2ccc(Cl)cc2)c2ccccc2n1	> 39 µM (inactive)
Cc1ccc(S(=O)(=O)Nc2ccc3c(c2)C(=O)N([C@H](C)CO)C[C@H](C)[C@H](CN(C)Cc2ccc(C(F)(F)F)cc2)O3)cc1	13.1 µM
Cc1ccccc1-c1nc(CN2CCN(C(=O)Nc3ccc(F)cc3)CC2)c(C)o1	> 39 µM (inactive)
O=C(NCCc1csc(-c2ccccc2)n1)[C@H]1CCCN1C(=O)Cc1ccc(Cl)cc1	> 39 µM (inactive)
COc1ccccc1NC(=O)N1CCCCN2[C@H](C1)[C@@H](c1ccc(-c3cccc(C#N)c3)cc1)[C@@H]2CO	21.1 µM
Cc1cc(C)cc(S(=O)(=O)N2CCC[C@@H]2C(=O)NCCc2csc(-c3ccccc3)n2)c1	13.5 µM
O=C(CC1CC1)N1CC[C@@H]2[C@@H](CO)Nc3ccc(-c4ccc(F)cc4)cc3[C@@H]21	21.1 µM
Cc1ccccc1CN1C[C@@H]2C[C@H](C(=O)Nc3ccccc3)[C@@H](C1)O2	10.5 µM
COc1ccc(-c2nc3c(s2)CN(S(=O)(=O)c2ccc(C)c(C)c2)CC3)cc1	20.7 µM
O=C(c1ccc(-n2nc(C(F)(F)F)c3c2CCCC3)cc1)N1CCN(c2cccc(Cl)c2)CC1	8.82 µM
N#Cc1cccc(-c2ccc([C@@H]3[C@H]4CN(Cc5ccccc5F)CCCCN4[C@H]3CO)cc2)c1	16.5 µM
Cc1ccc(S(=O)(=O)N2CCC3(CC2)NCCN=C3NCc2ccc(C(F)(F)F)cc2)c(C)c1	9.08 µM
COc1ccccc1-c1nc(Cn2nnc(-c3nc(-c4cccc(C(F)(F)F)c4)no3)c2C)c(C)o1	> 20 µM (inactive)
COC(=O)C[C@H]1CC[C@@H]2[C@H](COc3ccc(NC(=O)Nc4cccc(C#N)c4)cc3C(=O)N2C)O1	19.5 µM

Compound	AC50
COc1ccccc1C(=O)N1CCC2(CC1)Nc1ccc(Cl)cc1-n1cccc12	33.9 µM
CCOc1ccc(N(Cc2nc(-c3ccccc3)oc2C)S(=O)(=O)c2ccccc2)cc1	7.95 µM
Cc1ccc(N2CC(NC(=O)C(=O)c3c[nH]c4ccccc34)CC2=O)cc1 (configuration not stated)	> 39 µM (inactive)
Cc1ccc(-c2nc(CN3CCN(C(=O)Nc4ccc(F)cc4)CC3)c(C)o2)cc1	33.3 µM
O=C(NCc1ccccc1)C1CC2(CO1)CN(C(=O)c1ccc(F)cc1)c1ccccc12 (configuration not stated)	> 39 µM (inactive)
CC(C)c1ccc(S(=O)(=O)N2CCC(C(=O)NCCc3csc(-c4ccccc4)n3)CC2)cc1	12.7 µM
COc1ccc(N(Cc2nc(-c3ccc(C)cc3)oc2C)S(=O)(=O)c2ccccc2C)cc1	31.9 µM
CCN1CCCC1CNc1nc(-c2ccc(OC)cc2)nc2ccccc12 (configuration not stated)	15.1 µM
CC(C)COC1CC2(CCN(C(=O)c3cccn3C)CC2)C1	14.6 µM
CCOc1ccccc1-c1nc(CN(c2ccc(C)cc2)S(=O)(=O)c2cccs2)c(C)o1	11.2 µM
CC(C)CC#Cc1ccc([C@@H]2[C@@H](CO)N3CCCCN(C(=O)Nc4ccccc4)C[C@H]23)cc1	13.5 µM and 9.09 µM
Cc1ccc(-c2nc(Cn3nnc(-c4nc(-c5ccccc5)no4)c3C)c(C)o2)cc1	> 20 µM (inactive)
Cc1cccc(CNC2=NCCNC23CCN(S(=O)(=O)c2cc(C)cc(C)c2)CC3)c1	25.7 µM
O=S(=O)(c1ccccc1)N1CCc2c([nH]c3ccccc23)C1c1cc(F)ccc1F (configuration not stated)	12.6 µM
O=C(NCCCN1CCCC1)C1CCN(Cc2cc3ccccc3n2Cc2ccccc2Cl)CC1	25.8 µM
CCCCCOc1ccc(-c2ccc(-c3ccc(C(=O)NC4CC(O)C(O)NC(=O)C5C(O)C(C)CN5C(=O)C(C(C)O)NC(=O)C(C(O)C(O)c5ccc(O)cc5)NC(=O)C5CC(O)CN5C(=O)C(C(C)O)NC4=O)cc3)cc2)cc1 (stereo not drawn) ({pTerphenylCO(4''-OnC5H11)}-[ξOrn(4,5-diOH)]T[Hyp][ξhTyr(βξ-OH,γξ-OH)]T[ξPro(3ξ-OH,4ξ-Me)]; lactam 1-C; configuration not given here)	25 µM
COC(=O)C[C@H]1CC[C@@H]2[C@@H](COc3ccc(NC(=O)Nc4cccc(C#N)c4)cc3C(=O)N2C)O1	27.5 µM and 18.5 µM
N#Cc1cccc(-c2ccc3c(c2)[C@@H]2[C@@H](CCN2S(=O)(=O)c2ccc(F)cc2)[C@H](CO)N3)c1	17.8 µM
COc1ccc(NC(=O)N2CCCCN3[C@H](C2)[C@@H](c2ccc(-c4ccccc4F)cc2)[C@@H]3CO)cc1	32.8 µM
COc1cc(OC)cc(C(=O)Nc2ccc(-c3nc(-c4ccc(C)cc4C)co3)cc2)c1	29.7 µM
CCc1cnc(N2[C@H](C#N)[C@H](c3ccc(-c4cccc(F)c4)cc3)[C@H]2CO)s1	21.3 µM
O=C(CCn1c2c(c3ccccc31)CCCC2)N1CCC(c2ccncc2)CC1	15.3 µM

Compound	AC50
Cc1ccc(-c2coc(-c3ccc(NC(=O)Nc4cc(F)ccc4F)cc3)n2)cc1	27.7 µM
Cc1ccccc1Cn1c(CN2CCC(C(=O)NCCCN3CCCC3=O)CC2)cc2ccccc21	> 39 µM (inactive)
N#Cc1ccc(-c2ccc(C3[C@@H]4CN(C(=O)C5CCCCC5)C[C@H]3N4)cc2)cc1 (some centres not stated)	17.8 µM and 28.4 µM and 27.6 µM
Cc1cc(C(=O)N2CCC(c3cc4c(ncn4C)c(NCC4CC4)n3)CC2)ccc1Cl	23.1 µM
O=C(Nc1ccc(-c2nc(-c3ccccc3)co2)cc1)c1cccc(F)c1	30.6 µM
COc1cccc(S(=O)(=O)N2CCCCN3[C@H](CO)[C@@H](c4ccc(C#CCC(C)C)cc4)[C@H]3C2)c1	24.9 µM and 10.3 µM and 9.5 µM
CC(=O)N(C)C1(c2ccccc2)CCN(CCC[C@]2(c3ccc(Cl)c(Cl)c3)CCCN(C(=O)c3ccccc3)C2)CC1	12 µM
CC(C)CC#Cc1ccc([C@H]2[C@@H](CO)N3C(=O)CN(C(=O)Nc4cc(F)ccc4F)C[C@H]23)cc1	22.1 µM and 15.7 µM
O=C(CC1Nc2c3ccccc3nc(=S)n2C1=O)NCc1ccc2c(c1)OCO2 (configuration not stated)	> 39 µM (inactive)
CCOc1ccc(-c2nc(CN(c3cccc(OC)c3)S(=O)(=O)c3ccccc3)c(C)o2)cc1	6.87 µM
CC(C)C#Cc1ccc([C@H]2[C@@H](C#N)N(C(=O)c3cccc(F)c3)[C@H]2CO)cc1	> 39 µM (inactive)
C[C@@H]1CN([C@H](C)CO)C(=O)Cc2cc(NC(=O)C3CCCCC3)ccc2O[C@H]1CN(C)Cc1ccc(Cl)c(Cl)c1	17.4 µM
CCOc1ccc(-c2nc(CN3CCN(C(=O)Nc4ccccc4)CC3)c(C)o2)cc1	16.9 µM
O=C(Cc1ccncc1)N1CCCCN2[C@H](CO)[C@H](c3ccc(C#Cc4ccccc4F)cc3)[C@@H]2C1	8.53 µM
Cc1cccc(C(=O)Nc2c(C(=O)N3CCN(c4ccccn4)CC3)[nH]c3ccccc23)c1	> 39 µM (inactive)
O=C(NCCc1csc(-c2ccccc2)n1)C1CCN(C(=O)c2ccccc2Br)CC1	24.6 µM
Cc1cc(C)c(S(=O)(=O)N2CCC3(CC2)NCCN=C3NC2CCCCC2)cc1C	6.34 µM
NCCCC[C@@H]1NC(=O)[C@@H](Cc2c[nH]c3ccccc23)NC(=O)[C@H](c2ccccc2)NC(=O)[C@@H]2C[C@@H](OC(=O)NCCN)CN2C(=O)[C@H](Cc2ccccc2)NC(=O)[C@H](Cc2ccc(OCc3ccccc3)cc2)NC1=O (cyclo([Hyp]([CO-Ethylenediamine])[Phg][dW]KY(Bn)F))	15.9 µM
COc1ccc(-c2nc(N(CCCN3CCOCC3)Cc3ccco3)c3ccccc3n2)cc1	9.51 µM
CC(=O)NC1=NN(C(C)=O)C(C)(c2ccccc2)S1 (configuration not stated)	11 µM and 6.03 µM
CC(C)n1ncc(NC(=O)Cn2ccc(-c3ccc(C(F)(F)F)cc3)n2)n1	24.3 µM
COc1ccc(OCC(=O)N2CCC3(CC2)Nc2ccc(Cl)cc2-n2cccc23)cc1	> 39 µM (inactive)

Compound	AC50
Cc1cc(Nc2cc(N3CCN(C)CC3)nc(Sc3ccc(NC(=O)C4CC4)cc3)n2)n[nH]1	13.8 µM
COCCCN(Cc1ccco1)c1nc(-c2ccc(OC)cc2)nc2ccccc12	16.9 µM
COc1ccc(CNC2=NCCNC23CCN(S(=O)(=O)c2ccc(Cl)s2)CC3)cc1	3.91 µM
CC(C)n1cnc2c(NCC3CC3)nc(C3CCN(C(=O)c4cccc(F)c4F)CC3)cc21	19.8 µM
COc1ccc(-c2ccc3c(c2)[C@@H]2[C@@H](CCN2C(=O)c2cccc(F)c2)[C@H](CO)N3)cc1	26.9 µM
O=C(CCCCCn1c(=S)[nH]c2ccccc2c1=O)N1CCC(O)(c2cccc(C(F)(F)F)c2)CC1	26.9 µM
O=C(C1CCCCC1)N1CCC2(CC1)Nc1ccc(Cl)cc1-n1cccc12	24.7 µM
COc1ccc(-c2nc(NCCN3CCOCC3)c3ccccc3n2)cc1	14.2 µM
CC(C)CC(=O)N1CCC2(CC1)Nc1cc(F)ccc1-n1cccc12	> 39 µM (inactive)
COc1ccc(-n2nnc3c(N4CCN(C(=O)C(=O)c5c[nH]c6ccccc56)CC4)ncnc32)cc1	20.3 µM
COCCNc1nc(-c2ccc(OC)cc2)nc2ccccc12	18.4 µM
O=C(NCCc1csc(-c2ccccc2)n1)C1CCN(C(=O)c2ccco2)CC1	> 39 µM (inactive)
Cc1cccc(-c2nc(CN(c3ccccc3)S(=O)(=O)c3ccccc3)c(C)o2)c1	5.9 µM and 16.3 µM
Cc1ccc(-c2nc3c(s2)CN(C(=O)Nc2ccc(C)cc2C)CC3)cc1	35 µM
Cc1ccc(CNC2=NCCNC23CCN(S(=O)(=O)c2ccc(C)c(C)c2)CC3)cc1	7.83 µM
Cc1nc(CCNC(=O)[C@H]2CCCN2C(=O)c2cccc(F)c2)cs1	29.2 µM
C/C=C/c1ccc(C2[C@H]3CNC[C@@H]2N3C(=O)NC2CCCCC2)cc1 (some centres not stated)	9.23 µM and 7.74 µM
O=C(CC1N=C2c3ccccc3N=C(SCc3ccccc3Cl)N2C1=O)NCc1ccco1 (configuration not stated)	> 39 µM (inactive)
O=C(c1ccc(F)cc1)N1CC(=O)N2[C@H](C1)[C@H](c1ccc(C#CCC3CCCC3)cc1)[C@@H]2CO	10.6 µM
O=S(=O)(c1ccccc1)N1CCCCN2[C@H](CO)[C@@H](c3ccc(C#CC4CCCC4)cc3)[C@@H]2C1	13.4 µM
Cc1cccc(-n2ncc3c(NCc4cccc(Cl)c4)ncnc32)c1	24.5 µM
